Measured values: patent US7994209B2, “3-phenoxymethylpyrrolidine compounds” (Theravance, Inc., priority 2009, dated 2011)

The compounds below were run against T1, hSERT (Homo sapiens, UniProt P31645) (assay: hSERT neurotransmitter uptake assay (3H-5-HT), Assay 2). Settings: serotonin reuptake inhibition, 3H-5-HT uptake, HEK-293 hSERT cells (values without asterisk); read-out: SERT pIC50 (converted).
Type: cell-based
Design: expressed in transfected cells; host or cells: HEK-293

T1 sequence (P31645 whole entry): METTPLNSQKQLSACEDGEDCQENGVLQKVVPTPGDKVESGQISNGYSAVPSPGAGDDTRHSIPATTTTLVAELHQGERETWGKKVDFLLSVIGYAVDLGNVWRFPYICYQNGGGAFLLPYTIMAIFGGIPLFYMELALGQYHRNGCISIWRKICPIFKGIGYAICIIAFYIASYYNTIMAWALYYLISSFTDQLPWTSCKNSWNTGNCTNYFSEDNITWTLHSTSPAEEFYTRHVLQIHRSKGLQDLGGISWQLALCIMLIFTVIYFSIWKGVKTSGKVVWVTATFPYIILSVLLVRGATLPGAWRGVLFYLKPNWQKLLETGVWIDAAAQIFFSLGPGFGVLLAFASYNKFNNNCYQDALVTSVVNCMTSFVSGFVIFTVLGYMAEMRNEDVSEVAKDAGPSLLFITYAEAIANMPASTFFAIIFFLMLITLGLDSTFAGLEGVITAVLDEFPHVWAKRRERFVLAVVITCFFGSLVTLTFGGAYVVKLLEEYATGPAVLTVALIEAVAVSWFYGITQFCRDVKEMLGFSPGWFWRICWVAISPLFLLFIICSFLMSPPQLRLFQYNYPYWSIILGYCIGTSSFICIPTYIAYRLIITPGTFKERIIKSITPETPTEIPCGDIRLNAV

SMILES | IC50
CC(C)CC(Oc1c(F)ccc(F)c1Cl)C1CCNC1 (centres unmarked) [Example 10-62, 3-[1-(2-Chloro-3,6-difluorophenoxy)-3-methylbutyl]pyrrolidine] | ≤ 10 nM
CC(C)CC(Oc1c(F)ccc(Cl)c1Cl)C1CCNC1 (centres unmarked) [Example 10-64, 3-[1(2,3-Dichloro-6-fluorophenoxy)-3-methylbutyl]pyrrolidine] | ≤ 10 nM
CC(C)CC(Oc1c(F)cc(Cl)cc1F)C1CCNC1 (centres unmarked) [Example 10-66, 3-[1-(4-Chloro-2,6-difluorophenoxy)-3-methylbutyl]pyrrolidine] | ≤ 10 nM
CC(C)C[C@H](Oc1ccc(Cl)c(F)c1F)[C@H]1CCNC1 [Example 10-68, (S)-3-[(S)-1-(4-Chloro-2,3-difluorophenoxy)-3-methylbutyl]pyrrolidine] | ≤ 10 nM
CC(C)C[C@H](Oc1c(Cl)ccc(Cl)c1F)[C@H]1CCNC1 [Example 10-69, (S)-3-[(S)-1-(3,6-Dichloro-2-fluorophenoxy)-3-methylbutyl]pyrrolidine] | ≤ 10 nM
CC(C)CC(Oc1ccc(Cl)c(F)c1)C1CCNC1 (centres unmarked) [Example 10-70, 3-[1-(4-Chloro-3-fluorophenoxy)-3-methylbutyl]pyrrolidine] | ≤ 10 nM
CC(C)C[C@@H](Oc1ccc(Cl)c(Cl)c1)[C@H]1CCNC1 [Example 10-73, (S)-3-[(R)-1-(3,4-Dichlorophenoxy)-3-methylbutyl]pyrrolidine] | ≤ 10 nM
CC(C)C[C@H](Oc1cc(Cl)cc(Cl)c1)[C@H]1CCNC1 [Example 10-77, (S)-3-[(S)-1-(3,5-Dichlorophenoxy)-3-methylbutyl]pyrrolidine] | ≤ 10 nM

Second part, the compound after the results:

IC50 | SMILES
≤ 10 nM | COc1cc(Cl)ccc1O[C@@H](CC(C)C)[C@H]1CCNC1 [Example 10-49, (S)-3-[(S)-1-(4-Chloro-2-methoxyphenoxy)-3-methylbutyl]pyrrolidine]
≤ 100 nM | COc1ccc(F)cc1O[C@@H](CC(C)C)[C@H]1CCNC1 [Example 10-50, (S)-3-[(S)-1-(5-Fluoro-2-methoxyphenoxy)-3-methylbutyl]pyrrolidine]
≤ 10 nM | CC(C)C[C@H](Oc1c(F)cccc1Cl)[C@H]1CCNC1 [Example 10-52, (S)-3-[(S)-1-(2-Chloro-6-fluorophenoxy)-3-methylbutyl]pyrrolidine]
≤ 10 nM | CC(C)CC(Oc1c(Cl)cccc1Cl)C1CCNC1 (centres unmarked) [Example 10-53, 3-[1-(2,6-Dichlorophenoxy)-3-methylbutyl]pyrrolidine]
≤ 10 nM | CC(C)C[C@H](Oc1c(Cl)cccc1Cl)[C@H]1CCNC1 [Example 10-54, (S)-3-[(S)-1-(2,6-Dichlorophenoxy)-3-methylbutyl]pyrrolidine]
≤ 100 nM | CC(C)C[C@H](Oc1cc(F)c(F)cc1F)[C@H]1CCNC1 [Example 10-57, (S)-3-[(S)-3-Methyl-1-(2,4,5-trifluorophenoxy)butyl]pyrrolidine]
≤ 10 nM | CC(C)CC(Oc1c(Cl)ccc(Cl)c1F)C1CCNC1 (centres unmarked) [Example 10-58, 3-[1-(3,6-Dichloro-2-fluorophenoxy)-3-methylbutyl]pyrrolidine]
≤ 10 nM | CC(C)CC(Oc1c(F)ccc(Cl)c1F)C1CCNC1 (centres unmarked) [Example 10-59, 3-[1-(3-Chloro-2,6-difluorophenoxy)-3-methylbutyl]pyrrolidine]
≤ 10 nM | CC(C)C[C@H](Oc1ccc(Cl)c(Cl)c1F)[C@H]1CCNC1 [Example 10-61, (S)-3-[(S)-1-(3,4-Dichloro-2-fluorophenoxy)-3-methylbutyl]pyrrolidine]

What follows are compounds tested against T2, hNET (Homo sapiens, UniProt P23975) (assay: hNET neurotransmitter uptake assay (3H-NE), Assay 2). Settings: norepinephrine reuptake inhibition, 3H-NE uptake, HEK-293 hNET cells (values without asterisk); read-out: NET pIC50 (converted).
Type: cell-based
Design: expressed in transfected cells; host or cells: HEK-293

T2 sequence (P23975 whole entry): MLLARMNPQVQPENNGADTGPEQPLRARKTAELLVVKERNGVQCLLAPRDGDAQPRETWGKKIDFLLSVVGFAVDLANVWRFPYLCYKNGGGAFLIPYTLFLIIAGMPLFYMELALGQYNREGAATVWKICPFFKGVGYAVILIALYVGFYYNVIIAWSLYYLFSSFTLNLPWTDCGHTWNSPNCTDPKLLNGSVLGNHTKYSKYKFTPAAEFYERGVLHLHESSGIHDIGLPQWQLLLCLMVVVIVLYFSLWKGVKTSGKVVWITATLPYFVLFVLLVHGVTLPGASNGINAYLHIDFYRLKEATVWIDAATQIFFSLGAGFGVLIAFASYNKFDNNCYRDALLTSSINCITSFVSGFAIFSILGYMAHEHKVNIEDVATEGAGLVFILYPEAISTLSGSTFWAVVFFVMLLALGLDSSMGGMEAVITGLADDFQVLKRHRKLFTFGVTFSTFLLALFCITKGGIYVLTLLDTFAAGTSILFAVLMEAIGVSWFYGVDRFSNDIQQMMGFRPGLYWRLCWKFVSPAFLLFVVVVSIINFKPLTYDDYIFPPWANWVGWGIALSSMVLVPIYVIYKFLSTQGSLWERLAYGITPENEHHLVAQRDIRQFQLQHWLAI

SMILES | IC50
CC(C)CC(Oc1c(F)ccc(F)c1Cl)C1CCNC1 (centres unmarked) [Example 10-62, 3-[1-(2-Chloro-3,6-difluorophenoxy)-3-methylbutyl]pyrrolidine] | ≤ 10 nM
CC(C)CC(Oc1c(F)ccc(Cl)c1Cl)C1CCNC1 (centres unmarked) [Example 10-64, 3-[1(2,3-Dichloro-6-fluorophenoxy)-3-methylbutyl]pyrrolidine] | ≤ 10 nM
CC(C)CC(Oc1c(F)cc(Cl)cc1F)C1CCNC1 (centres unmarked) [Example 10-66, 3-[1-(4-Chloro-2,6-difluorophenoxy)-3-methylbutyl]pyrrolidine] | ≤ 10 nM
CC(C)C[C@H](Oc1ccc(Cl)c(F)c1F)[C@H]1CCNC1 [Example 10-68, (S)-3-[(S)-1-(4-Chloro-2,3-difluorophenoxy)-3-methylbutyl]pyrrolidine] | ≤ 10 nM
CC(C)C[C@H](Oc1c(Cl)ccc(Cl)c1F)[C@H]1CCNC1 [Example 10-69, (S)-3-[(S)-1-(3,6-Dichloro-2-fluorophenoxy)-3-methylbutyl]pyrrolidine] | ≤ 10 nM
CC(C)CC(Oc1ccc(Cl)c(F)c1)C1CCNC1 (centres unmarked) [Example 10-70, 3-[1-(4-Chloro-3-fluorophenoxy)-3-methylbutyl]pyrrolidine] | ≤ 10 nM
CC(C)C[C@@H](Oc1ccc(Cl)c(Cl)c1)[C@H]1CCNC1 [Example 10-73, (S)-3-[(R)-1-(3,4-Dichlorophenoxy)-3-methylbutyl]pyrrolidine] | ≤ 10 nM
CC(C)C[C@H](Oc1cc(Cl)cc(Cl)c1)[C@H]1CCNC1 [Example 10-77, (S)-3-[(S)-1-(3,5-Dichlorophenoxy)-3-methylbutyl]pyrrolidine] | ≤ 10 nM

Second part, the compound after the results:

IC50 | SMILES
≤ 10 nM | COc1cc(Cl)ccc1O[C@@H](CC(C)C)[C@H]1CCNC1 [Example 10-49, (S)-3-[(S)-1-(4-Chloro-2-methoxyphenoxy)-3-methylbutyl]pyrrolidine]
≤ 10 nM | COc1ccc(F)cc1O[C@@H](CC(C)C)[C@H]1CCNC1 [Example 10-50, (S)-3-[(S)-1-(5-Fluoro-2-methoxyphenoxy)-3-methylbutyl]pyrrolidine]
≤ 10 nM | CC(C)C[C@H](Oc1c(F)cccc1Cl)[C@H]1CCNC1 [Example 10-52, (S)-3-[(S)-1-(2-Chloro-6-fluorophenoxy)-3-methylbutyl]pyrrolidine]
≤ 10 nM | CC(C)CC(Oc1c(Cl)cccc1Cl)C1CCNC1 (centres unmarked) [Example 10-53, 3-[1-(2,6-Dichlorophenoxy)-3-methylbutyl]pyrrolidine]
≤ 10 nM | CC(C)C[C@H](Oc1c(Cl)cccc1Cl)[C@H]1CCNC1 [Example 10-54, (S)-3-[(S)-1-(2,6-Dichlorophenoxy)-3-methylbutyl]pyrrolidine]
≤ 10 nM | CC(C)C[C@H](Oc1cc(F)c(F)cc1F)[C@H]1CCNC1 [Example 10-57, (S)-3-[(S)-3-Methyl-1-(2,4,5-trifluorophenoxy)butyl]pyrrolidine]
≤ 10 nM | CC(C)CC(Oc1c(Cl)ccc(Cl)c1F)C1CCNC1 (centres unmarked) [Example 10-58, 3-[1-(3,6-Dichloro-2-fluorophenoxy)-3-methylbutyl]pyrrolidine]
≤ 10 nM | CC(C)CC(Oc1c(F)ccc(Cl)c1F)C1CCNC1 (centres unmarked) [Example 10-59, 3-[1-(3-Chloro-2,6-difluorophenoxy)-3-methylbutyl]pyrrolidine]
≤ 10 nM | CC(C)C[C@H](Oc1ccc(Cl)c(Cl)c1F)[C@H]1CCNC1 [Example 10-61, (S)-3-[(S)-1-(3,4-Dichloro-2-fluorophenoxy)-3-methylbutyl]pyrrolidine]

The compounds below were run against T2, hNET (assay: hNET membrane radioligand binding assay (3H-nisoxetine), Assay 1). Settings: not given.

SMILES | Ki
CC(C)CC(Oc1c(F)ccc(F)c1Cl)C1CCNC1 (centres unmarked) [Example 10-62, 3-[1-(2-Chloro-3,6-difluorophenoxy)-3-methylbutyl]pyrrolidine] | ≤ 10 nM
CC(C)CC(Oc1c(F)ccc(Cl)c1Cl)C1CCNC1 (centres unmarked) [Example 10-64, 3-[1(2,3-Dichloro-6-fluorophenoxy)-3-methylbutyl]pyrrolidine] | ≤ 10 nM
CC(C)CC(Oc1c(F)cc(Cl)cc1F)C1CCNC1 (centres unmarked) [Example 10-66, 3-[1-(4-Chloro-2,6-difluorophenoxy)-3-methylbutyl]pyrrolidine] | ≤ 10 nM
CC(C)C[C@H](Oc1ccc(Cl)c(F)c1F)[C@H]1CCNC1 [Example 10-68, (S)-3-[(S)-1-(4-Chloro-2,3-difluorophenoxy)-3-methylbutyl]pyrrolidine] | ≤ 10 nM
CC(C)C[C@H](Oc1c(Cl)ccc(Cl)c1F)[C@H]1CCNC1 [Example 10-69, (S)-3-[(S)-1-(3,6-Dichloro-2-fluorophenoxy)-3-methylbutyl]pyrrolidine] | ≤ 10 nM
CC(C)CC(Oc1ccc(Cl)c(F)c1)C1CCNC1 (centres unmarked) [Example 10-70, 3-[1-(4-Chloro-3-fluorophenoxy)-3-methylbutyl]pyrrolidine] | ≤ 10 nM
CC(C)C[C@@H](Oc1ccc(Cl)c(Cl)c1)[C@H]1CCNC1 [Example 10-73, (S)-3-[(R)-1-(3,4-Dichlorophenoxy)-3-methylbutyl]pyrrolidine] | ≤ 10 nM
CC(C)C[C@H](Oc1cc(Cl)cc(Cl)c1)[C@H]1CCNC1 [Example 10-77, (S)-3-[(S)-1-(3,5-Dichlorophenoxy)-3-methylbutyl]pyrrolidine] | ≤ 10 nM

Next, values leading:

Ki | SMILES
≤ 10 nM | COc1cc(Cl)ccc1O[C@@H](CC(C)C)[C@H]1CCNC1 [Example 10-49, (S)-3-[(S)-1-(4-Chloro-2-methoxyphenoxy)-3-methylbutyl]pyrrolidine]
≤ 10 nM | COc1ccc(F)cc1O[C@@H](CC(C)C)[C@H]1CCNC1 [Example 10-50, (S)-3-[(S)-1-(5-Fluoro-2-methoxyphenoxy)-3-methylbutyl]pyrrolidine]
≤ 10 nM | CC(C)C[C@H](Oc1c(F)cccc1Cl)[C@H]1CCNC1 [Example 10-52, (S)-3-[(S)-1-(2-Chloro-6-fluorophenoxy)-3-methylbutyl]pyrrolidine]
≤ 10 nM | CC(C)CC(Oc1c(Cl)cccc1Cl)C1CCNC1 (centres unmarked) [Example 10-53, 3-[1-(2,6-Dichlorophenoxy)-3-methylbutyl]pyrrolidine]
≤ 10 nM | CC(C)C[C@H](Oc1c(Cl)cccc1Cl)[C@H]1CCNC1 [Example 10-54, (S)-3-[(S)-1-(2,6-Dichlorophenoxy)-3-methylbutyl]pyrrolidine]
≤ 10 nM | CC(C)C[C@H](Oc1cc(F)c(F)cc1F)[C@H]1CCNC1 [Example 10-57, (S)-3-[(S)-3-Methyl-1-(2,4,5-trifluorophenoxy)butyl]pyrrolidine]
≤ 10 nM | CC(C)CC(Oc1c(Cl)ccc(Cl)c1F)C1CCNC1 (centres unmarked) [Example 10-58, 3-[1-(3,6-Dichloro-2-fluorophenoxy)-3-methylbutyl]pyrrolidine]
≤ 10 nM | CC(C)CC(Oc1c(F)ccc(Cl)c1F)C1CCNC1 (centres unmarked) [Example 10-59, 3-[1-(3-Chloro-2,6-difluorophenoxy)-3-methylbutyl]pyrrolidine]
≤ 10 nM | CC(C)C[C@H](Oc1ccc(Cl)c(Cl)c1F)[C@H]1CCNC1 [Example 10-61, (S)-3-[(S)-1-(3,4-Dichloro-2-fluorophenoxy)-3-methylbutyl]pyrrolidine]

These compounds were tested against T1, hSERT (assay: hSERT membrane radioligand binding assay (3H-citalopram), Assay 1). Settings: SERT pKi, hSERT HEK-293 membranes, 1.0 nM 3H-citalopram; values given as lower bounds.

SMILES | Ki
CC(C)CC(Oc1c(F)ccc(F)c1Cl)C1CCNC1 (centres unmarked) [Example 10-62, 3-[1-(2-Chloro-3,6-difluorophenoxy)-3-methylbutyl]pyrrolidine] | ≤ 10 nM
CC(C)CC(Oc1c(F)ccc(Cl)c1Cl)C1CCNC1 (centres unmarked) [Example 10-64, 3-[1(2,3-Dichloro-6-fluorophenoxy)-3-methylbutyl]pyrrolidine] | ≤ 10 nM
CC(C)CC(Oc1c(F)cc(Cl)cc1F)C1CCNC1 (centres unmarked) [Example 10-66, 3-[1-(4-Chloro-2,6-difluorophenoxy)-3-methylbutyl]pyrrolidine] | ≤ 10 nM
CC(C)C[C@H](Oc1ccc(Cl)c(F)c1F)[C@H]1CCNC1 [Example 10-68, (S)-3-[(S)-1-(4-Chloro-2,3-difluorophenoxy)-3-methylbutyl]pyrrolidine] | ≤ 10 nM
CC(C)C[C@H](Oc1c(Cl)ccc(Cl)c1F)[C@H]1CCNC1 [Example 10-69, (S)-3-[(S)-1-(3,6-Dichloro-2-fluorophenoxy)-3-methylbutyl]pyrrolidine] | ≤ 10 nM
CC(C)CC(Oc1ccc(Cl)c(F)c1)C1CCNC1 (centres unmarked) [Example 10-70, 3-[1-(4-Chloro-3-fluorophenoxy)-3-methylbutyl]pyrrolidine] | ≤ 10 nM
CC(C)C[C@@H](Oc1ccc(Cl)c(Cl)c1)[C@H]1CCNC1 [Example 10-73, (S)-3-[(R)-1-(3,4-Dichlorophenoxy)-3-methylbutyl]pyrrolidine] | ≤ 10 nM
CC(C)C[C@H](Oc1cc(Cl)cc(Cl)c1)[C@H]1CCNC1 [Example 10-77, (S)-3-[(S)-1-(3,5-Dichlorophenoxy)-3-methylbutyl]pyrrolidine] | ≤ 10 nM

Next, values leading:

Ki | SMILES
≤ 10 nM | COc1cc(Cl)ccc1O[C@@H](CC(C)C)[C@H]1CCNC1 [Example 10-49, (S)-3-[(S)-1-(4-Chloro-2-methoxyphenoxy)-3-methylbutyl]pyrrolidine]
≤ 10 nM | COc1ccc(F)cc1O[C@@H](CC(C)C)[C@H]1CCNC1 [Example 10-50, (S)-3-[(S)-1-(5-Fluoro-2-methoxyphenoxy)-3-methylbutyl]pyrrolidine]
≤ 10 nM | CC(C)C[C@H](Oc1c(F)cccc1Cl)[C@H]1CCNC1 [Example 10-52, (S)-3-[(S)-1-(2-Chloro-6-fluorophenoxy)-3-methylbutyl]pyrrolidine]
≤ 10 nM | CC(C)CC(Oc1c(Cl)cccc1Cl)C1CCNC1 (centres unmarked) [Example 10-53, 3-[1-(2,6-Dichlorophenoxy)-3-methylbutyl]pyrrolidine]
≤ 10 nM | CC(C)C[C@H](Oc1c(Cl)cccc1Cl)[C@H]1CCNC1 [Example 10-54, (S)-3-[(S)-1-(2,6-Dichlorophenoxy)-3-methylbutyl]pyrrolidine]
≤ 10 nM | CC(C)C[C@H](Oc1cc(F)c(F)cc1F)[C@H]1CCNC1 [Example 10-57, (S)-3-[(S)-3-Methyl-1-(2,4,5-trifluorophenoxy)butyl]pyrrolidine]
≤ 10 nM | CC(C)CC(Oc1c(Cl)ccc(Cl)c1F)C1CCNC1 (centres unmarked) [Example 10-58, 3-[1-(3,6-Dichloro-2-fluorophenoxy)-3-methylbutyl]pyrrolidine]
≤ 10 nM | CC(C)CC(Oc1c(F)ccc(Cl)c1F)C1CCNC1 (centres unmarked) [Example 10-59, 3-[1-(3-Chloro-2,6-difluorophenoxy)-3-methylbutyl]pyrrolidine]
≤ 10 nM | CC(C)C[C@H](Oc1ccc(Cl)c(Cl)c1F)[C@H]1CCNC1 [Example 10-61, (S)-3-[(S)-1-(3,4-Dichloro-2-fluorophenoxy)-3-methylbutyl]pyrrolidine]
